Source: patent US20250345394A1, “HAIR-GROWING OR HAIR-FOSTERING AGENT BASED ON KERATIN FINE PARTICLES” (MYQTECH INC., priority 2022, published 2025)

System: C57BL/6 mice
Assay: Hair growing effect on mice (topical application to shaved dorsal region)
Assay type: in vivo
Settings: 1% topically every day, male C57BL/6 mice
Method: In the present example, the hair growing effect of keratin microparticles on mice was investigated. The experiment was approved by Institutional Animal Care and Use Committee, University of Tsukuba (No. 17-060), and the procedure was carried out in conformity with the “Guiding principles for the care and use of animals in the field of physiological sciences” approved by the board of Physiological Society of Japan.
Six-week-old male C57BL/6 mice (Charles River Japan Inc.) were kept individually in a cage. acclimated for 1 week, and then randomly assigned to experiment groups (each group n=5) of a 1% Minoxidil treated group, a 1% keratin treated group, a 1% keratin microparticles treated group, and a milli-Q water treated group (control group). The mice were anesthetized with Isoflurane (Wako Pure Chemical Industries, Ltd.) and then telogen hair at the dorsal region of the mice was shaved using a hair clipper to induce the growth phase. […]
In the end of treatment period, the mice were slaughtered by cervical dislocation. […] Using ImageJ processing program (National Institutes of Health, Bethesda, USA), the hair regrowth at the treated area was measured.

With `Nc1cc(N2CCCCC2)nc(N)[n+]1[O-]` [Minoxidil] the “time of hair regrowth phenotype” value was ~10 day after application.
